For orientation: EC50 means the midpoint of the concentration-response curve.

The source of these data is US20220289746A1, “PYRROLIDINE DERIVATIVES” (Hoffmann-La Roche Inc., priority 2019, published 2022).

In one data set the target is T1, M4 receptor (Mus musculus, UniProt P32211).
T1 construct: host or cells: living mice (behavioural test)
T1 sequence (P32211 1-479): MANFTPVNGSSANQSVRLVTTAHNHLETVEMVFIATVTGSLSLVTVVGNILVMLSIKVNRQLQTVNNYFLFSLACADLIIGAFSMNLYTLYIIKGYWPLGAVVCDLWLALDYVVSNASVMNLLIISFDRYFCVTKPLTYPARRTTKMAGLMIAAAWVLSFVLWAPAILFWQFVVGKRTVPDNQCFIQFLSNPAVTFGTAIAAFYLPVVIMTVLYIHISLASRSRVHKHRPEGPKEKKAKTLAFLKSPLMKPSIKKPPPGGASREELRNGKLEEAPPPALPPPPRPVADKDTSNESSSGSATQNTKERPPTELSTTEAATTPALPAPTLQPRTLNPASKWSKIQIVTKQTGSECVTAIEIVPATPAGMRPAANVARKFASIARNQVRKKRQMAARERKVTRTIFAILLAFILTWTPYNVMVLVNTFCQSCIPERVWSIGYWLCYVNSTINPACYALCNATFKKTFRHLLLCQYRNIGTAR
Conditions: rodent in vivo; effects absent in M4 knockout mice; cited from earlier work.

The subject of another data set is muscarinic receptors. Conditions: 345 Alzheimer patients; cited from earlier work.
In data set [1] the target is T2, human M4 receptor (Homo sapiens, UniProt P08173).
T2 sequence (P08173 1-479): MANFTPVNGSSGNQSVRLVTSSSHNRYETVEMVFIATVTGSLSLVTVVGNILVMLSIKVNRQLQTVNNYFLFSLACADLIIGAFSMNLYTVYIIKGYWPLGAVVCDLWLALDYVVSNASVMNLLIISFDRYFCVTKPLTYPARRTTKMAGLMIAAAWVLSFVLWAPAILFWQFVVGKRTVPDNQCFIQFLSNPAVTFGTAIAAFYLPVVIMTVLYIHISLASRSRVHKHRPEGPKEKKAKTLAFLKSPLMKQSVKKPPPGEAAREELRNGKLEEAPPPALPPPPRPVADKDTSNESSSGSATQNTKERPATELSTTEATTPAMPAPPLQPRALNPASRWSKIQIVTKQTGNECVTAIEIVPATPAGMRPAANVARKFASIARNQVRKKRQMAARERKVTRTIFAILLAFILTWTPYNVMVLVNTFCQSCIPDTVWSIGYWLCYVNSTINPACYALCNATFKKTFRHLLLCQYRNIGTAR
Kind of data set: Calcium flux assay using fluorescent imaging (M4 PAM FLIPR assay). It is filed as cell-based. Details: expressed in transfected cells; host or cells: CHO (monoclonal line, clone 2). The note with it: CHO cells expressing human M4+Gqi5, acetylcholine EC20. Put shortly:
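CHO cells stably expressing human M4 with Gqi5 were loaded with 2 μM Fluo-4-AM for about 90 min at 37 °C, in HBSS/20 mM HEPES pH 7.3/2.5 mM probenecid. For PAM mode, compound was pre-incubated 15 min before an EC20 acetylcholine challenge; calcium read on FDSS 7000. EC50 and efficacy are relative to 3 μM acetylcholine (EC100), four-parameter fit.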
For orientation: Calcium assays in cells follow changes in intracellular calcium, usually with a dye or a luminescent sensor.

Data set [2] concerns the target T2, human M4 receptor. The data set can be described thus: cAMP assay for M4 positive allosteric modulators (M4 PAM cAMP assay). Format: cell-based. Further details: expressed in transfected cells; host or cells: CHO-K1. Conditions: CHO-K1 cells expressing human M4, forskolin 7.5 μM + acetylcholine EC20 (0.2 nM). The method in brief: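 CHO-K1 cells stably expressing untagged human M4 pre-treated 15 min at 37 °C with compound plus IBMX, then stimulated 30 min with 7.5 μM forskolin and EC20 acetylcholine (0.2 nM). cAMP read by TR-FRET; normalised to 2 nM acetylcholine plus forskolin as 100%, sigmoidal fit giving EC50 and % efficacy.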
In general terms: Cyclic AMP is a second messenger, typically raised through Gs and lowered through Gi signalling.

The next data set has as its system liver cells. Kind of data set: Determination of the in vitro clearance in liver cells. Format: in vitro ADME. Conditions: for Clearance: in vitro intrinsic clearance, liver cells (hepatocyte cultures), 37° C. How it is done:
Determination of the In Vitro Clearance
Incubations of a test compound at different concentrations were performed in 96 well plates containing liver cells (5% CO2 atmosphere and 37° C.). At defined time points, either cell medium was taken or the whole well was quenched with acetonitrile containing an internal standard. Samples are then cooled and centrifuged before analysis by LC-MS/MS. Different enzyme markers (Cyp3A4 substrates Midazolam, Quinidin, CYP2B6 Buproprion, CYP2D6 Dextromethorphan, CYP2C9 Tolbutamide, FMO substrate Benzydamine, UGT substrate Raloxifene) for assessing the metabolic activity of the hepatocyte cultures were used as quality control.
Log peak area ratios (test compound peak area/internal standard peak area) or concentrations were plotted against incubation time and a linear fit made to the data with emphasis upon the initial rate of compound disappearance. The slope of the fit is then used to calculate the intrinsic clearance:
Additionally, the intrinsic clearance can also be deduced by the measured rates of metabolite formation.

Regarding `Cc1nnc2sc(C(=O)NCc3ccc(S(=O)(=O)C(F)(F)F)cc3)c(N)c2c1C` [VU0467154], the “effect on associative learning impairments induced by MK-801” value on M4 receptor is “ameliorated the associative learning impairments”.

With `CCCCCCOc1nsnc1C1=CCCN(C)C1` [Xanomeline], the “effect on cognition and psychiatric symptoms” value in the data set with muscarinic receptors was “improve cognition and psychiatric symptoms”.

As to `Cc1nc2c(c(C)c1Cl)CN(C(=O)[C@@H]1CCN(c3cccnc3)C1)C2` [Example 1, (3-chloro-2,4-dimethyl-5,7-dihydropyrrolo[3,4-b]pyridin-6-yl)-[(3R)-1-(3-pyridyl)pyrrolidin-3-yl]methanone], the figures for the EC50 at human M4 receptor [1] (Table 1) and at human M4 receptor [2] (Table 1) were 387 nM and 155 nM, respectively. Also, the “clearance values reduced compared to clearance values of examples P1, P2 and P55” value in the data set on liver cells (in vitro clearance, relative to reference compounds) is given as 50%. The molecule also displayed a Clearance with liver cells of 9.3 μl/min/1 * 10^6 cells.

As to `Cc1nc2c(c(C)c1Cl)CN(C(=O)CC1CN(c3ccncn3)C1)C2` [Example P2, reference compound], the EC50 on human M4 receptor [1] (Table 2) worked out at 35 nM; at human M4 receptor [2] (Table 2) it was 53 nM. Further, the Clearance in the data set on liver cells stood at 7.9 μl/min/1 * 10^6 cells.

Consider `Cc1nc2c(c(C)c1Cl)CN(C(=O)CC1CN(c3cccnc3)C1)C2` [Example P1, reference compound], for which the EC50 on human M4 receptor [1] (Table 2) worked out at 947 nM; on human M4 receptor [2] (Table 2) it was 55 nM. In the data set on liver cells, this molecule came in with a Clearance of 20 μl/min/1 * 10^6 cells.
